In patent US7964701B2, “Alpha-fetoprotein peptides” (Albany Medical College, priority 2006, dated 2011):
Where a SMILES comes first, the peptide text is derived from it. Where no end group is shown, it is not given here. [ ]: non-standard residue; d: D form. Hyp = O=C(O)[C@@H]1C[C@@H](O)CN1

Assays:
[1] = tested on: E2-stimulated growth of mouse uterus; assay: Immature mouse uterine growth assay; type: in vivo; conditions: for dose-response profile, inhibition of E2-stimulated uterine growth: FIG. 5; for antiestrogenic activity (inhibition of E2-stimulated uterine growth), in words: Table 3 discussion; for antiestrogenic activity (inhibition of E2-stimulated uterine growth), in words / Inhibition ± S.E, % Immature mouse uterine growth Intraperitoneal: 1 μg/mouse intraperitoneally; for Activity % ± SD (percent growth inhibition of uterus): dose 1 ug/animal
Source text: The anti-breast cancer activity of the linear and cyclic 8-mer and 9-mer AFP-derived peptides is well-documented using the immature mouse uterine growth assay and the human breast cancer xenograft assay; there is a strong correlation between the results of these two assays. To evaluate peptide-induced inhibition by the peptide of the present invention of estrogen-stimulated proliferation of normal tissue, the immature mouse uterine growth assay was utilized. Briefly, 13-15 day-old Swiss/Webster female mice, 6-8 g in body weight, were distributed into treatment groups of 5 mice per group so that each group contained animals of the same range of body weight. The peptide of the invention was injected i.p., s.c., or p.o. into the mice. One hour later, estradiol (E2) or vehicle control for E2 was injected i.p. Twenty-two hours after the second injection, uteri were harvested, trimmed free of mesenteries, and immediately weighed. The uterine weights were normalized to mouse body weights to compensate for differences in body weight among litters of the same age. Experiments employed a minimum of five mice per group and the mean normalized uterine weight±SE for each group was calculated. Percent growth inhibition in a test group was calculated from normalized uterine wet weights as described below.
Differences between groups were evaluated, employing the nonparametric Wicoxon ranks sum test. In all cases, growth inhibitions that were greater than 25% were significant at P≦0.05.
In other experiments, peptide analogs comprising the sequences TOVN SEQ ID NO.: 3) and TPVN (SEQ ID NO.: 2) were assessed for their ability to inhibit E2-stimulated growth of mouse uterus after intraperitoneal and oral administration.
The ability to inhibit E2-stimulated growth of normal mouse uterus was used as a screening assay for biological activity of AFPep analogs. In general, inhibitory activity≧20% is considered to be biologically significant. Each analog's inhibitory effect on E2-stimulated growth was compared to AFPep (a positive control) and to PGVGQ (SEQ ID NO.: 44)(a negative control). PGVGQ (SEQ ID NO.: 44) (amino acids 478-482 of AFP) is a portion of the primary structure of AFP near to the anti-cancer active site of AFP and is comprised of amino acids (P, V, and G) that are important components of AFPep. A scrambled analog of AFPep was not used because some scrambled peptides retain low biological activity (data not shown). In Table 3, bold letters denote the sequences containing a putative Type I beta-turn, which was postulated to be necessary for antiestrogenic activity.

[2] = tested on: T47D human breast cancer cells; conditions: for dose response profile, inhibition of E2-stimulated T47D cell growth / concentration up to which E2-stimulated T47D growth was inhibited in a concentration dependent manner / activity maintained: FIG. 6; for inhibition of E2-stimulated T47D cell growth, in words: Table 3 discussion, 1 μM
Description: T47D cells were obtained from ATCC® (Rockville, Md.) and grown in culture according recommended protocols. Cells were treated with 1 nM estrogen or 100 nM TOVNO (SEQ ID NO.: 7)/1 nM estrogen. Control cells received 10% estrogen-free media. Cells were treated for seven days.
A number of AFPep analogs were assessed for in vitro anticancer activity.

[3] = tested on: MCF-7 human breast cancer cells; assay: MCF-7 human tumor xenograft assay in SCID mice; type: in vivo, mouse; conditions: for change in mean tumor volume: FIG. 1
Description: The peptides of the invention were evaluated for their ability to inhibit tumor growth in a human tumor xenograft assay. Briefly, MCF-7 human breast cancer cells were obtained from ATCC® (Rockville, Md.) and were grown in DMEM supplemented with 5% FCS, 1% non-essential amino acids, 10 ng/ml insulin, 2 mM L-glutamine, 100 units/ml penicillin, and 100 μg/ml streptomycin. MCF-7 cells from culture were solidified into a fibrin clot. The tumor-containing clots were cut into pieces about 1.5 mm in diameter and implanted under the kidney capsule of severe combined immunodeficient (ICR-SCID) mice (Taconic Farms, Germantown, N.Y.) as described in Bennett et al. (Clin. Cancer Res. 1998; 4:2877-84).
Estrogen supplementation of mice was required for the growth of MCF-7 tumors. Supplementation was accomplished by s.c. implantation of a Silastic tubing capsule containing solid E2 (2 mm in length) inserted on the day of tumor implantation. Tumor size was evaluated during survival laparotomy using a dissecting microscope at the time of tumor implantation and at days 15 and 30 after tumor implantation.
The T47D human breast cancer cell line is responsive in culture, but it was a less reliable tool when grown as a xenograft tumor in immune deficient mice, having a take-rate of <60% in these mice. However, the MCF-7 human breast cancer cell line has a tumor take-rate of 100% in immune deficient mice and is completely dependent on E2 for growth in these mice (2). Consequently, MCF-7 xenografts were used as a model for ER+human breast cancer to evaluate, in vivo, the effectiveness of TOVNO (SEQ ID NO.: 7) and TOVNOGNEK (SEQ ID NO.: 34) as anticancer agents.

[4] = once a day 10 μg per mouse i.p., FIG. 7b
[5] = once a day 100 μg by oral gavage, FIG. 7a

CC(C)[C@H](NC(=O)[C@@H]1C[C@@H](O)CN1C(=O)[C@@H](NC(=O)[C@H](CCCCN)NC(=O)[C@@H](N)CCC(=O)O)[C@@H](C)O)C(=O)N[C@@H](CC(N)=O)C(=O)N1C[C@H](O)C[C@H]1C(=O)NCC(=O)N[C@@H](CC(N)=O)C(N)=O [EKTOVNOGN] (H-EKT[Hyp]VN[Hyp]GN-NH2; N-terminus and C-terminus assumed)
dose-response profile, inhibition of E2-stimulated uterine growth [1]: biphasic dose-response curve | antiestrogenic activity (inhibition of E2-stimulated uterine growth), in words [1]: active at this dose | dose response profile, inhibition of E2-stimulated T47D cell growth [2]: biphasic dose response curve

CC(C)[C@H](NC(=O)[C@@H]1C[C@@H](O)CN1C(=O)[C@@H](NC(=O)[C@H](CCCCN)NC(=O)[C@@H](N)CCC(=O)O)[C@@H](C)O)C(N)=O [EKTOV] (H-EKT[Hyp]V-NH2; N-terminus assumed)
antiestrogenic activity (inhibition of E2-stimulated uterine growth), in words [1]: little or no antiestrogenic activity

CC(C)[C@H](NC(=O)[C@@H]1C[C@@H](O)CN1C(=O)[C@@H](NC(=O)[C@@H](N)CCCCN)[C@@H](C)O)C(=O)N[C@@H](CC(N)=O)C(=O)N1C[C@H](O)C[C@H]1C(=O)NCC(N)=O [KTOVNOG] (H-KT[Hyp]VN[Hyp]G-NH2; N-terminus and C-terminus assumed)
antiestrogenic activity (inhibition of E2-stimulated uterine growth), in words [1]: significantly inhibited E2-stimulated uterine growth

CC(C)[C@H](NC(=O)[C@@H]1C[C@@H](O)CN1)C(=O)N[C@@H](CC(N)=O)C(=O)N1C[C@H](O)C[C@H]1C(=O)NCC(N)=O [OVNOG] (H-[Hyp]VN[Hyp]G-NH2; N-terminus assumed)
antiestrogenic activity (inhibition of E2-stimulated uterine growth), in words [1]: weakly inhibited E2-stimulated uterine growth

CC(C)[C@H](NC(=O)[C@@H]1C[C@@H](O)CN1)C(=O)N[C@@H](CC(N)=O)C(=O)N1C[C@H](O)C[C@H]1C(N)=O [OVNO] (H-[Hyp]VN[Hyp]-NH2; N-terminus assumed)
antiestrogenic activity (inhibition of E2-stimulated uterine growth), in words [1]: lacked antiestrogenic activity | inhibition of E2-stimulated T47D cell growth, in words [2]: lacked inhibitory activity

CC(C)[C@H](NC(=O)[C@@H]1C[C@@H](O)CN1C(=O)[C@@H](N)[C@@H](C)O)C(=O)N[C@@H](CC(N)=O)C(=O)N1C[C@H](O)C[C@H]1C(=O)NCC(=O)N[C@@H](CC(N)=O)C(=O)N[C@@H](CCC(=O)O)C(=O)N[C@@H](CCCCN)C(N)=O [TOVNOGNEK] (H-T[Hyp]VN[Hyp]GNEK-NH2; N-terminus and C-terminus assumed)
dose-response profile, inhibition of E2-stimulated uterine growth [1]: maintained its inhibitory effect at high doses | antiestrogenic activity (inhibition of E2-stimulated uterine growth), in words [1]: significantly inhibited E2-stimulated uterine growth | concentration up to which E2-stimulated T47D growth was inhibited in a concentration dependent manner / activity maintained [2]: ≤ 10^−4 M | dose response profile, inhibition of E2-stimulated T47D cell growth [2]: maintained its activity with increasing concentrations | inhibition of E2-stimulated T47D cell growth, in words [2]: comparable to AFPep | growth of ER+ human MCF-7 breast cancer tumors [3, 4]: significantly inhibited | growth of ER+ human MCF-7 breast cancer tumors [3, 5]: significantly inhibited

CC(C)[C@H](NC(=O)[C@@H]1C[C@@H](O)CN1C(=O)[C@@H](N)[C@@H](C)O)C(=O)N[C@@H](CC(N)=O)C(=O)N1C[C@H](O)C[C@H]1C(N)=O [TOVNO] (H-T[Hyp]VN[Hyp]-NH2; N-terminus assumed)
dose-response profile, inhibition of E2-stimulated uterine growth [1]: biphasic dose-response curve | dose up to which E2-stimulated uterine growth was inhibited in a dose-dependent manner ([1]; FIG. 5c): up to 1 μg/mouse | antiestrogenic activity (inhibition of E2-stimulated uterine growth), in words [1]: significantly inhibited E2-stimulated uterine growth | estrogen-stimulated T47D cell proliferation ([2]; 100 nM peptide/1 nM estrogen, seven days, FIG. 3): T47D cell proliferation was reduced | concentration up to which E2-stimulated T47D growth was inhibited in a concentration dependent manner / activity maintained [2]: up to 10^−7 M | dose response profile, inhibition of E2-stimulated T47D cell growth [2]: lost activity with increasing concentration thereafter | inhibition of E2-stimulated T47D cell growth, in words [2]: significantly inhibited | change in mean tumor volume ([3]; 100 μg/day p.o.): significantly decreased the increase in tumor volume | change in mean tumor volume ([3]; intraperitoneal 1 μg/day): effective in reducing the increase in mean tumor volume | change in mean tumor volume ([3]; intraperitoneal 10 μg/day): effective in reducing the increase in mean tumor volume | growth of ER+ human MCF-7 breast cancer tumors [3, 4]: significantly inhibited | growth of ER+ human MCF-7 breast cancer tumors [3, 5]: significantly inhibited

CC(C)[C@H](NC(=O)[C@@H]1C[C@@H](O)CN1C(=O)[C@@H](N)[C@@H](C)O)C(=O)N[C@@H](CC(N)=O)C(N)=O [TOVN] (H-T[Hyp]VN-NH2; N-terminus assumed)
antiestrogenic activity (inhibition of E2-stimulated uterine growth), in words [1]: weak antiestrogenic activity | inhibition of E2-stimulated T47D cell growth, in words [2]: very weak inhibitory activity

CC(C)[C@@H]1NC(=O)[C@@H]2C[C@@H](O)CN2C(=O)[C@H]([C@@H](C)O)NC(=O)[C@H](CCCCN)NC(=O)[C@H](CCC(=O)O)NC(=O)[C@H](CC(N)=O)NC(=O)CNC(=O)[C@@H]2C[C@@H](O)CN2C(=O)[C@H](CC(N)=O)NC1=O [cyclo[EKTOVNOGN], reference compound] (cyclo(EKT[Hyp]VN[Hyp]GN))
dose-response profile, inhibition of E2-stimulated uterine growth [1]: attenuated but did not completely eliminate this loss of activity with increasing doses | concentration up to which E2-stimulated T47D growth was inhibited in a concentration dependent manner / activity maintained [2]: up to 10^−6 M | dose response profile, inhibition of E2-stimulated T47D cell growth [2]: lost activity at higher concentrations | Inhibition ± S.E, % T47D cell proliferation ([2]; peptide 1 μM, E2-stimulated): 51 ± 4 % | growth of ER+ human MCF-7 breast cancer tumors [3, 4]: significantly inhibited | growth of ER+ human MCF-7 breast cancer tumors [3, 5]: significantly inhibited

EKTPV [5-mer outside the pharmacophoric region]
Inhibition ± S.E, % Immature mouse uterine growth Intraperitoneal [1]: 0% | antiestrogenic activity (inhibition of E2-stimulated uterine growth), in words [1]: little or no antiestrogenic activity

EMTOV (EMT[Hyp]V; not fully specified (C-terminus)) [5-mer outside the pharmacophoric region]
Inhibition ± S.E, % Immature mouse uterine growth Intraperitoneal [1]: 1 ± 1% | antiestrogenic activity (inhibition of E2-stimulated uterine growth), in words [1]: little or no antiestrogenic activity

EMTPV [5-mer outside the pharmacophoric region]
Inhibition ± S.E, % Immature mouse uterine growth Intraperitoneal [1]: 5 ± 4% | antiestrogenic activity (inhibition of E2-stimulated uterine growth), in words [1]: little or no antiestrogenic activity

KTPVNPG
Inhibition ± S.E, % Immature mouse uterine growth Intraperitoneal [1]: 34 ± 2 % | antiestrogenic activity (inhibition of E2-stimulated uterine growth), in words [1]: significantly inhibited E2-stimulated uterine growth

MTOVNOG (MT[Hyp]VN[Hyp]G; not fully specified (C-terminus))
Inhibition ± S.E, % Immature mouse uterine growth Intraperitoneal [1]: 28 ± 2 % | antiestrogenic activity (inhibition of E2-stimulated uterine growth), in words [1]: significantly inhibited E2-stimulated uterine growth

PVNP
Inhibition ± S.E, % Immature mouse uterine growth Intraperitoneal [1]: 6 ± 3% | Activity % ± SD (percent growth inhibition of uterus) [1]: 10%

TPVN
Inhibition ± S.E, % Immature mouse uterine growth Intraperitoneal [1]: 29 ± 1 % | Activity % ± SD (percent growth inhibition of uterus) [1]: 27%

TPVNP
Inhibition ± S.E, % Immature mouse uterine growth Intraperitoneal [1]: 27 ± 1 % | Activity % ± SD (percent growth inhibition of uterus) [1]: 26%
